Source: ChEMBL document CHEMBL1149723, “Structures of four new triterpenoid oligoglycosides: DS-penaustrosides A, B, C, and D from the sea cucumber Pentacta australis” (J Nat Prod, 1992)
In brackets after ≈: the same amount, converted by molar mass.

Assays:
L1210 = assay: Cytotoxicity against mouse L1210 cells; assay type: functional, cell-based
KB = assay: Cytotoxicity against human KB cells; assay type: functional, cell-based

| SMILES | IC50 (L1210) [µg/mL] | IC50 (KB) [µg/mL] |
| --- | --- | --- |
| C=C(C)CCC[C@](C)(O)[C@H]1CC[C@@]2(C)[C@@H]3CC[C@H]4C(C)(C)[C@@H](O[C@@H]5OC[C@@H](O)[C@H](O)[C@H]5O[C@@H]5O[C@H](C)[C@@H](O[C@@H]6O[C@H](CO)[C@@H](O)[C@H](O[C@@H]7O[C@H](CO)[C@@H](O)[C@H](OC)[C@H]7O)[C@H]6O)[C@H](O)[C@H]5O[C@@H]5OC[C@@H](O)[C@H](O)[C@H]5O)CC[C@]4(C)C3=CC[C@]12C [DS-PENAUSTROSIDE B] | 2.1 (≈ 1.76 µM) | 4.6 (≈ 3.86 µM) |
| CO[C@@H]1[C@@H](O)[C@H](O[C@@H]2[C@@H](O)[C@H](O[C@H]3[C@H](O)[C@@H](O[C@@H]4OC[C@@H](O)[C@H](O)[C@H]4O)[C@H](O[C@H]4[C@H](O[C@H]5CC[C@]6(C)C7=CC[C@]8(C)[C@@H]([C@@](C)(O)CCCC(C)C)CC[C@@]8(C)[C@@H]7CC[C@H]6C5(C)C)OC[C@@H](O)[C@@H]4O)O[C@@H]3C)O[C@H](CO)[C@H]2O)O[C@H](CO)[C@H]1O [DS-PENAUSTROSIDE A] | 0.12 (≈ 0.101 µM) | 0.62 (≈ 0.52 µM) |
